Test results taken from US9738634B2, “Heterocyclic amide compound and herbicide” (SYNGENTA PARTICIPATIONS AG, priority 2013, dated 2017).

Tests used:
Format in all cases: in vivo
barnyard grass [1] = assay: Test Example 1: weedkilling efficacy, preemergent weed treatment in the submerged state; A: barnyard grass; conditions: treatment dosage 252 g/ha
Procedure, shortened: (§1)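 Pre-emergence application onto floodwater (4 cm, alluvial soil) on the day of sowing, dose expressed as g/ha from diluted emulsion formulation. Weeds sown with 2.5-leaf transplanted rice as crop; plants held at 25–30 °C in greenhouse and scored against assessment criteria after 3 weeks.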

bulrush [2] = assay: Test Example 1: weedkilling efficacy, preemergent weed treatment in the submerged state; B: bulrush; conditions: treatment dosage 252 g/ha
Procedure, shortened: as §1

oval-leafed pondweed [3] = assay: Test Example 1: weedkilling efficacy, preemergent weed treatment in the submerged state; C: oval-leafed pondweed; conditions: treatment dosage 252 g/ha
Procedure, shortened: as §1

transplanted rice = assay: Test Example 1: preemergent weed treatment in the submerged state, effect on crop; a: transplanted rice; conditions: treatment dosage 252 g/ha
Procedure, shortened: as §1

barnyard grass [4] = assay: Test Example 2: weedkilling efficacy, growth period weed treatment in the submerged state; A: barnyard grass; conditions: treatment dosage 252 g/ha
Procedure, shortened: (§2)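 Weeds treated at the 1-2 leaf stage by application of diluted emulsion onto floodwater (4 cm depth, alluvial soil) at specified g/ha. Grown in greenhouse at 25 to 30° C; herbicidal effect rated three weeks after treatment.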

bulrush [5] = assay: Test Example 2: weedkilling efficacy, growth period weed treatment in the submerged state; B: bulrush; conditions: treatment dosage 252 g/ha
Procedure, shortened: as §2

oval-leafed pondweed [6] = assay: Test Example 2: weedkilling efficacy, growth period weed treatment in the submerged state; C: oval-leafed pondweed; conditions: treatment dosage 252 g/ha
Procedure, shortened: as §2

crabgrass [7] = assay: Test Example 3: weedkilling efficacy through soil treatment; D: crabgrass; conditions: treatment dosage 315 g/ha
Procedure, shortened: (§3)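 Crop and weed responses were judged three weeks after a uniform surface spray of the water-diluted emulsion at the given g/ha rate. Seeds sat beneath about 1.5 cm of sterilized diluvial soil, and boxes stood in a greenhouse at 25 to 30° C.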

green foxtail [8] = assay: Test Example 3: weedkilling efficacy through soil treatment; E: green foxtail; conditions: treatment dosage 315 g/ha
Procedure, shortened: as §3

black-grass [9] = assay: Test Example 3: weedkilling efficacy through soil treatment; H: black-grass; conditions: treatment dosage 315 g/ha
Procedure, shortened: as §3

Italian ryegrass [10] = assay: Test Example 3: weedkilling efficacy through soil treatment; I: Italian ryegrass; conditions: treatment dosage 315 g/ha
Procedure, shortened: as §3

Indian mallow [11] = assay: Test Example 3: weedkilling efficacy through soil treatment; K: Indian mallow; conditions: treatment dosage 315 g/ha
Procedure, shortened: as §3

redroot pigweed [12] = assay: Test Example 3: weedkilling efficacy through soil treatment; L: redroot pigweed; conditions: treatment dosage 315 g/ha
Procedure, shortened: as §3

fig-leafed goosefoot [13] = assay: Test Example 3: weedkilling efficacy through soil treatment; M: fig-leafed goosefoot; conditions: treatment dosage 315 g/ha
Procedure, shortened: as §3

chickweed [14] = assay: Test Example 3: weedkilling efficacy through soil treatment; N: chickweed; conditions: treatment dosage 315 g/ha
Procedure, shortened: as §3

catchweed [15] = assay: Test Example 3: weedkilling efficacy through soil treatment; O: catchweed; conditions: treatment dosage 315 g/ha
Procedure, shortened: as §3

birds-eye speedwell [16] = assay: Test Example 3: weedkilling efficacy through soil treatment; p: birds-eye speedwell; conditions: treatment dosage 315 g/ha
Procedure, shortened: as §3

directly sown rice [17] = assay: Test Example 3: soil treatment, effect on crop; b: directly sown rice; conditions: treatment dosage 315 g/ha
Procedure, shortened: as §3

corn [18] = assay: Test Example 3: soil treatment, effect on crop; c: corn; conditions: treatment dosage 315 g/ha
Procedure, shortened: as §3

soybean [19] = assay: Test Example 3: soil treatment, effect on crop; d: soybean; conditions: treatment dosage 315 g/ha
Procedure, shortened: as §3

wheat [20] = assay: Test Example 3: soil treatment, effect on crop; e: wheat; conditions: treatment dosage 315 g/ha
Procedure, shortened: as §3

beet [21] = assay: Test Example 3: soil treatment, effect on crop; f: beet; conditions: treatment dosage 315 g/ha
Procedure, shortened: as §3

crabgrass [22] = assay: Test Example 4: weedkilling efficacy by foliar treatment; D: crabgrass; conditions: treatment dosage 315 g/ha
Procedure, shortened: (§4)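 Seeds are spot-sown into sterilized diluvial soil and covered with about 1.5 cm of soil. After 14 days' greenhouse growth at 25 to 30° C, plants are sprayed on stems and leaves with diluted emulsion at the stated g/ha rate, then scored at 3 weeks.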

green foxtail [23] = assay: Test Example 4: weedkilling efficacy by foliar treatment; E: green foxtail; conditions: treatment dosage 315 g/ha
Procedure, shortened: as §4

black-grass [24] = assay: Test Example 4: weedkilling efficacy by foliar treatment; H: black-grass; conditions: treatment dosage 315 g/ha
Procedure, shortened: as §4

Italian ryegrass [25] = assay: Test Example 4: weedkilling efficacy by foliar treatment; I: Italian ryegrass; conditions: treatment dosage 315 g/ha
Procedure, shortened: as §4

Indian mallow [26] = assay: Test Example 4: weedkilling efficacy by foliar treatment; K: Indian mallow; conditions: treatment dosage 315 g/ha
Procedure, shortened: as §4

redroot pigweed [27] = assay: Test Example 4: weedkilling efficacy by foliar treatment; L: redroot pigweed; conditions: treatment dosage 315 g/ha
Procedure, shortened: as §4

fig-leafed goosefoot [28] = assay: Test Example 4: weedkilling efficacy by foliar treatment; M: fig-leafed goosefoot; conditions: treatment dosage 315 g/ha
Procedure, shortened: as §4

chickweed [29] = assay: Test Example 4: weedkilling efficacy by foliar treatment; N: chickweed; conditions: treatment dosage 315 g/ha
Procedure, shortened: as §4

catchweed [30] = assay: Test Example 4: weedkilling efficacy by foliar treatment; O: catchweed; conditions: treatment dosage 315 g/ha
Procedure, shortened: as §4

birds-eye speedwell [31] = assay: Test Example 4: weedkilling efficacy by foliar treatment; p: birds-eye speedwell; conditions: treatment dosage 315 g/ha
Procedure, shortened: as §4

directly sown rice [32] = assay: Test Example 4: foliar treatment, effect on crop; b: directly sown rice; conditions: treatment dosage 315 g/ha
Procedure, shortened: as §4

corn [33] = assay: Test Example 4: foliar treatment, effect on crop; c: corn; conditions: treatment dosage 315 g/ha
Procedure, shortened: as §4

soybean [34] = assay: Test Example 4: foliar treatment, effect on crop; d: soybean; conditions: treatment dosage 315 g/ha
Procedure, shortened: as §4

wheat [35] = assay: Test Example 4: foliar treatment, effect on crop; e: wheat; conditions: treatment dosage 315 g/ha
Procedure, shortened: as §4

beet [36] = assay: Test Example 4: foliar treatment, effect on crop; f: beet; conditions: treatment dosage 315 g/ha
Procedure, shortened: as §4

Row | SMILES | A (barnyard grass) weedkilling efficacy grade (barnyard grass [1]) | B (bulrush) weedkilling efficacy grade (bulrush [2]) | C (oval-leafed pondweed) weedkilling efficacy grade (oval-leafed pondweed [3]) | a (transplanted rice) effect on crop grade (transplanted rice) | A (barnyard grass) weedkilling efficacy grade (barnyard grass [4]) | B (bulrush) weedkilling efficacy grade (bulrush [5]) | C (oval-leafed pondweed) weedkilling efficacy grade (oval-leafed pondweed [6]) | D (crabgrass) weedkilling efficacy grade (crabgrass [7]) | E (green foxtail) weedkilling efficacy grade (green foxtail [8]) | H (black-grass) weedkilling efficacy grade (black-grass [9]) | I (Italian ryegrass) weedkilling efficacy grade (Italian ryegrass [10]) | K (Indian mallow) weedkilling efficacy grade (Indian mallow [11]) | L (redroot pigweed) weedkilling efficacy grade (redroot pigweed [12]) | M (fig-leafed goosefoot) weedkilling efficacy grade (fig-leafed goosefoot [13]) | N (chickweed) weedkilling efficacy grade (chickweed [14]) | O (catchweed) weedkilling efficacy grade (catchweed [15]) | P (birds-eye speedwell) weedkilling efficacy grade (birds-eye speedwell [16]) | b (directly sown rice) effect on crop grade (directly sown rice [17]) | c (corn) effect on crop grade (corn [18]) | d (soybean) effect on crop grade (soybean [19]) | other results
1 | CCc1nsc(NC(=O)C(C)(C)N2COC(C)=C(c3ccccc3)C2=O)n1 [B-1-14] | 5 (weed kill ratio 90% or more, (practically complete withering)) | 5 (weed kill ratio 90% or more, (practically complete withering)) | 5 (weed kill ratio 90% or more, (practically complete withering)) | 1 (weed kill ratio 5% or more, less than 20%) | 5 (weed kill ratio 90% or more, (practically complete withering)) | 5 (weed kill ratio 90% or more, (practically complete withering)) | 5 (weed kill ratio 90% or more, (practically complete withering)) | 5 (weed kill ratio 90% or more, (practically complete withering)) | 5 (weed kill ratio 90% or more, (practically complete withering)) | 5 (weed kill ratio 90% or more, (practically complete withering)) | 5 (weed kill ratio 90% or more, (practically complete withering)) | 3 (weed kill ratio 40% or more, less than 70%) | 5 (weed kill ratio 90% or more, (practically complete withering)) | 5 (weed kill ratio 90% or more, (practically complete withering)) | 4 (weed kill ratio 70% or more, less than 90%) | 5 (weed kill ratio 90% or more, (practically complete withering)) | 5 (weed kill ratio 90% or more, (practically complete withering)) | 5 (weed kill ratio 90% or more, (practically complete withering)) | 0 (weed kill ratio 5% or less (practically no effect)) | 3 (weed kill ratio 40% or more, less than 70%) | e (wheat) effect on crop grade (wheat [20]): 5 (weed kill ratio 90% or more, (practically complete withering)); f (beet) effect on crop grade (beet [21]): 5 (weed kill ratio 90% or more, (practically complete withering)); D (crabgrass) weedkilling efficacy grade (crabgrass [22]): 5 (weed kill ratio 90% or more, (practically complete withering)); E (green foxtail) weedkilling efficacy grade (green foxtail [23]): 5 (weed kill ratio 90% or more, (practically complete withering)); H (black-grass) weedkilling efficacy grade (black-grass [24]): 5 (weed kill ratio 90% or more, (practically complete withering)); I (Italian ryegrass) weedkilling efficacy grade (Italian ryegrass [25]): 5 (weed kill ratio 90% or more, (practically complete withering)); K (Indian mallow) weedkilling efficacy grade (Indian mallow [26]): 5 (weed kill ratio 90% or more, (practically complete withering)); L (redroot pigweed) weedkilling efficacy grade (redroot pigweed [27]): 5 (weed kill ratio 90% or more, (practically complete withering)); M (fig-leafed goosefoot) weedkilling efficacy grade (fig-leafed goosefoot [28]): 4 (weed kill ratio 70% or more, less than 90%); N (chickweed) weedkilling efficacy grade (chickweed [29]): 4 (weed kill ratio 70% or more, less than 90%); O (catchweed) weedkilling efficacy grade (catchweed [30]): 4 (weed kill ratio 70% or more, less than 90%); P (birds-eye speedwell) weedkilling efficacy grade (birds-eye speedwell [31]): 4 (weed kill ratio 70% or more, less than 90%); b (directly sown rice) effect on crop grade (directly sown rice [32]): 4 (weed kill ratio 70% or more, less than 90%); c (corn) effect on crop grade (corn [33]): 3 (weed kill ratio 40% or more, less than 70%); d (soybean) effect on crop grade (soybean [34]): 4 (weed kill ratio 70% or more, less than 90%); e (wheat) effect on crop grade (wheat [35]): 4 (weed kill ratio 70% or more, less than 90%); f (beet) effect on crop grade (beet [36]): 5 (weed kill ratio 90% or more, (practically complete withering))
2 | CC1=C(c2ccccc2)C(=O)N(C(C)(C)C(=O)Nc2nc(-c3ccccc3)ns2)CO1 [B-1-17] | 5 (weed kill ratio 90% or more, (practically complete withering)) | 5 (weed kill ratio 90% or more, (practically complete withering)) | 5 (weed kill ratio 90% or more, (practically complete withering)) | 0 (weed kill ratio 5% or less (practically no effect)) | 5 (weed kill ratio 90% or more, (practically complete withering)) | 5 (weed kill ratio 90% or more, (practically complete withering)) | 4 (weed kill ratio 70% or more, less than 90%) | 5 (weed kill ratio 90% or more, (practically complete withering)) | 5 (weed kill ratio 90% or more, (practically complete withering)) | 5 (weed kill ratio 90% or more, (practically complete withering)) | 5 (weed kill ratio 90% or more, (practically complete withering)) | 0 (weed kill ratio 5% or less (practically no effect)) | 4 (weed kill ratio 70% or more, less than 90%) | 5 (weed kill ratio 90% or more, (practically complete withering)) | 3 (weed kill ratio 40% or more, less than 70%) | 5 (weed kill ratio 90% or more, (practically complete withering)) | 5 (weed kill ratio 90% or more, (practically complete withering)) | 0 (weed kill ratio 5% or less (practically no effect)) | 0 (weed kill ratio 5% or less (practically no effect)) | 0 (weed kill ratio 5% or less (practically no effect)) | e (wheat) effect on crop grade (wheat [20]): 3 (weed kill ratio 40% or more, less than 70%); f (beet) effect on crop grade (beet [21]): 0 (weed kill ratio 5% or less (practically no effect)); D (crabgrass) weedkilling efficacy grade (crabgrass [22]): 5 (weed kill ratio 90% or more, (practically complete withering)); E (green foxtail) weedkilling efficacy grade (green foxtail [23]): 5 (weed kill ratio 90% or more, (practically complete withering)); H (black-grass) weedkilling efficacy grade (black-grass [24]): 5 (weed kill ratio 90% or more, (practically complete withering)); I (Italian ryegrass) weedkilling efficacy grade (Italian ryegrass [25]): 1 (weed kill ratio 5% or more, less than 20%); K (Indian mallow) weedkilling efficacy grade (Indian mallow [26]): 5 (weed kill ratio 90% or more, (practically complete withering)); L (redroot pigweed) weedkilling efficacy grade (redroot pigweed [27]): 5 (weed kill ratio 90% or more, (practically complete withering)); M (fig-leafed goosefoot) weedkilling efficacy grade (fig-leafed goosefoot [28]): 4 (weed kill ratio 70% or more, less than 90%); N (chickweed) weedkilling efficacy grade (chickweed [29]): 3 (weed kill ratio 40% or more, less than 70%); O (catchweed) weedkilling efficacy grade (catchweed [30]): 4 (weed kill ratio 70% or more, less than 90%); P (birds-eye speedwell) weedkilling efficacy grade (birds-eye speedwell [31]): 3 (weed kill ratio 40% or more, less than 70%); b (directly sown rice) effect on crop grade (directly sown rice [32]): 4 (weed kill ratio 70% or more, less than 90%); c (corn) effect on crop grade (corn [33]): 5 (weed kill ratio 90% or more, (practically complete withering)); d (soybean) effect on crop grade (soybean [34]): 0 (weed kill ratio 5% or less (practically no effect)); e (wheat) effect on crop grade (wheat [35]): 0 (weed kill ratio 5% or less (practically no effect)); f (beet) effect on crop grade (beet [36]): 0 (weed kill ratio 5% or less (practically no effect))
